Where two headings read alike, the source gives them in different places.
What was measured:
Experiment in all cases: microbe, parasite or virus in culture
Assay type in all cases: cell-based
[1] = test system: HCV 2a JFH-1 Rluc cells (dicistronic genotype 2a JFH-1 replicon, RLuc reporter); details: genotype 2a JFH-1 replicon, read-out: 2a JFH
Summary of the method: (§1)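 Replicon cells stably carrying the listed RLuc-encoding dicistronic replicons were seeded and treated with DMSO serial dilutions of compound (10 mM stocks) diluted into culture medium. After 72 h, cells were lysed and Renilla luciferase activity measured. EC50 was derived by non-linear regression.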

[2] = test system: HCV 1b RLuc cells (dicistronic genotype 1b Con1 replicon, RLuc reporter)
Summary of the method: as §1

[3] = test system: HCV 1a RLuc cells (dicistronic genotype 1a H77 replicon, RLuc reporter); details: read-out: 1a
Summary of the method: as §1

[4] = test system: HCV 4a Rluc cells (NS5A chimeric genotype 1b Con1 replicon with genotype 4a NS5A gene); details: read-out: 4a
Summary of the method: as §1

[5] = test system: HCV 3a RLuc cells (NS5A chimeric genotype 1b Con1 replicon with consensus genotype 3a NS5A gene)
Summary of the method: as §1

[6] = Hepatitis C virus, read-out: 1b (nM)
[7] = Hepatitis C virus, genotype 1a replicon
[8] = Hepatitis C virus, read-out: 3a, genotype 3a replicon
[9] = Hepatitis C virus, RLuc reporter
[10] = Hepatitis C virus, genotype 1a H77 replicon, RLuc reporter
[11] = Hepatitis C virus, read-out: 3a, genotype 3a NS5A chimeric 1b Con1 replicon
[12] = Hepatitis C virus, 72 h, Table 2, 72 hours
[13] = Hepatitis C virus, 72 h, read-out: 1b (nM)
[14] = Hepatitis C virus, 72 h, Table 2, genotype 1a H77 replicon, 72 hours
[15] = Hepatitis C virus, read-out: 3a, Table 2, genotype 3a NS5A chimeric replicon
[16] = Hepatitis C virus, 72 h, Table 1, 72 hours
[17] = Hepatitis C virus, 72 h, Table 1, genotype 1a H77 replicon, 72 hours
[18] = Hepatitis C virus, read-out: 3a, Table 1, genotype 3a NS5A chimeric replicon

Row | SMILES | EC50 [2, 6] [nM] | EC50 ([4]; Hepatitis C virus) [pM] | EC50 [1, 9] [pM] | EC50 [3, 10] [pM] | EC50 [5, 11] [pM] | EC50 [2, 13] [nM] | other results
1 | COC(=O)N[C@H](C(=O)N1CCC[C@H]1c1ncc(-c2ccc3cc(-c4ccc5c(c4)CCc4nc([C@@H]6CCCN6C(=O)[C@@H](NC(=O)OC)C6CCOCC6)[nH]c4-5)ccc3c2)[nH]1)C(C)C [Example 222] | – | – | – | – | – | – | EC50 ([1]; RLuc reporter): 1 to 999 pM; EC50 ([2]; read-out: 1b): 0.023 nM; EC50 ([3]; genotype 1a H77 replicon, RLuc reporter): 1 to 999 pM; EC50 ([4]; genotype 4a NS5A chimeric 1b Con1 replicon): 1 to 990 pM; EC50 ([5]; read-out: 3a, genotype 3a NS5A chimeric 1b Con1 replicon): 1 to 990 pM
2 | COC(=O)N[C@H](C(=O)N1CCC[C@H]1c1nc2ccc3cc(-c4ccc(-c5cnc([C@@H]6CCCN6C(=O)[C@H](NC(=O)OC)c6ccccc6)[nH]5)cc4C#CC4CC4)ccc3c2[nH]1)C(C)C [Example 351] | 0.008 | 1 to 990 | – | – | – | – | EC50 ([1]; Hepatitis C virus): 1 to 999 pM; EC50 [3, 7]: 1 to 999 pM; EC50 [5, 8]: 1 to 990 pM
3 | COC(=O)N[C@@H](C(=O)N1CCC[C@H]1c1ncc(-c2ccc3cc(-c4ccc5c(c4)CCc4nc([C@@H]6CCCN6C(=O)[C@@H](NC(=O)OC(C)(C)C)C6CCOCC6)[nH]c4-5)ccc3c2)[nH]1)c1ccccc1 [Example 269] | 0.076 | 1 to 990 | 1000 to 44000 | > 44000 | > 5000 | – | –
4 | COC(=O)N[C@H](C(=O)N1CC(F)(F)C[C@H]1c1ncc(-c2ccc(-c3ccc4cc(-c5cnc([C@@H]6CCCN6C(=O)[C@H](NC(=O)OC)c6ccccc6)[nH]5)ccc4c3)cc2)[nH]1)C1CCOCC1 [Example 224] | 0.008 | 1 to 990 | 1 to 999 | 1 to 999 | 1 to 990 | – | –
5 | COC(=O)N[C@H](C(=O)N1[C@@H]2CC[C@@H](C2)[C@H]1c1ncc(-c2ccc3c(c2)CCc2cc(-c4cnc([C@@H]5CCCN5C(=O)[C@@H](NC(=O)OC)C(C)OC)[nH]4)ccc2-3)[nH]1)C(C)C (stereo partly shown) [Example 85] | – | 1 to 990 | – | – | – | 0.016 | EC50 [1, 12]: 1 to 999 pM; EC50 [3, 14]: 1 to 999 pM; EC50 [5, 15]: 1000 to 4990 pM
6 | COC(=O)N[C@H](C(=O)N1[C@@H]2C[C@@H]2C[C@H]1c1nc2ccc3cc(-c4ccc(-c5cnc([C@@H]6[C@H]7CC[C@H](C7)N6C(=O)[C@H](NC(=O)OC)c6ccccc6)[nH]5)cc4)ccc3c2[nH]1)C(C)C [Example 337] | 0.01 | 1 to 990 | – | – | – | – | EC50 ([1]; Hepatitis C virus): 1 to 999 pM; EC50 [3, 7]: 1 to 999 pM; EC50 [5, 8]: 1 to 990 pM
7 | COC(=O)N[C@H](C(=O)N1[C@@H]2CC[C@@H](C2)[C@H]1c1ncc(-c2ccc(-c3ccc4c(ccc5nc([C@@H]6CCCN6C(=O)[C@@H](NC(=O)OC)C6CCOCC6)[nH]c54)c3)cc2F)[nH]1)C(C)C [Example 302] | 0.021 | 1 to 990 | – | – | – | – | EC50 ([1]; Hepatitis C virus): 1 to 999 pM; EC50 [3, 7]: 1 to 999 pM; EC50 [5, 8]: 1 to 990 pM
8 | COC(=O)N[C@H](C(=O)N1[C@@H]2CC[C@@H](C2)[C@H]1c1nc2ccc(-c3ccc4c(c3)C(F)(F)c3cc(-c5cnc([C@@H]6CCCN6C(=O)[C@H](NC(=O)OC)c6ccccc6)[nH]5)ccc3-4)cc2[nH]1)C(C)C [Example 41] | – | 1 to 990 | – | – | – | 0.005 | EC50 [1, 12]: 1 to 999 pM; EC50 [3, 14]: 1 to 999 pM; EC50 [5, 15]: 1 to 990 pM
9 | COC(=O)N[C@H](C(=O)N1[C@@H]2CC[C@@H](C2)[C@H]1c1ncc(-c2ccc(-c3ccc(-c4cnc([C@@H]5C[C@H]6C[C@H]6N5C(=O)[C@@H](NC(=O)OC)C(C)C)[nH]4)cc3)cc2)[nH]1)C(C)C [Example 99] | – | 1 to 990 | – | – | – | 0.021 | EC50 [1, 12]: 1 to 999 pM; EC50 [3, 14]: 1 to 999 pM; EC50 [5, 15]: 1000 to 4990 pM
10 | COC(=O)N[C@H](C(=O)N1CCC[C@H]1c1ncc(-c2ccc3cc(-c4ccc(-c5cnc([C@@H]6[C@@H]7CC[C@@H](C7)N6C(=O)[C@@H](NC(=O)OC)C(C)C)[nH]5)cc4)ccc3c2)[nH]1)C(C)C [Example 52] | – | 1 to 990 | – | – | – | 0.009 | EC50 [1, 12]: 1000 to 44000 pM; EC50 [3, 14]: 1 to 999 pM; EC50 [5, 15]: 1000 to 4990 pM
11 | COC(=O)N[C@H](C(=O)N1CCC[C@H]1c1ncc(-c2ccc3c4ccc(-c5cnc([C@@H]6CCCN6C(=O)[C@@H](NC(=O)OC)C(C)C)[nH]5)cc4c4nccnc4c3c2)[nH]1)C(C)C [Example 18] | – | 1 to 990 | – | – | – | 0.018 | EC50 [1, 16]: 1 to 999 pM; EC50 [3, 17]: 1 to 999 pM; EC50 [5, 18]: 1000 to 4990 pM
12 | COC(=O)N[C@H](C(=O)N1CCC[C@H]1c1ncc(-c2ccc(-c3ccc(-c4[nH]c([C@@H]5CCCN5C(=O)[C@@H](NC(=O)OC)C(C)C)nc4Cl)cc3)cc2)[nH]1)C(C)C [Example 359] | 0.011 | 1 to 990 | – | – | – | – | EC50 ([1]; Hepatitis C virus): 1 to 999 pM; EC50 [3, 7]: 1 to 999 pM; EC50 [5, 8]: 1 to 990 pM
13 | COC(=O)NC(C(=O)N1CCC[C@H]1c1ncc(-c2ccc3c(c2)OCc2cc(-c4ccc5nc([C@@H]6[C@H]7CC[C@H](C7)N6C(=O)[C@H](NC(=O)OC)c6ccccc6)[nH]c5c4)ccc2-3)[nH]1)[C@@H](C)OC (stereo in doubt) [Example 294] | 0.01 | 1 to 990 | – | – | – | – | EC50 ([1]; Hepatitis C virus): 1 to 999 pM; EC50 [3, 7]: 1 to 999 pM; EC50 [5, 8]: 1 to 990 pM
14 | COC(=O)NC(C(=O)N1CCC[C@H]1c1ncc(-c2ccc3c(c2)C(F)(F)c2cc(-c4ccc(-c5cnc([C@@H]6CCCN6C(=O)[C@@H](NC(=O)OC)C6CCOCC6)[nH]5)cc4)ccc2-3)[nH]1)C1CCOCC1 (stereo partly shown) [Example 202] | 0.017 | 1 to 990 | 1000 to 44000 | 1 to 999 | > 5000 | – | –
15 | COC(=O)N[C@H](C(=O)N1CC2(CC2)C[C@H]1c1ncc(-c2ccc(-c3ccc4cc(-c5cnc([C@@H]6CCCN6C(=O)[C@H](NC(=O)OC)c6ccccc6)[nH]5)ccc4c3)cc2)[nH]1)C1CCOCC1 [Example 234] | 0.011 | 1 to 990 | 1 to 999 | 1 to 999 | 1 to 990 | – | –
16 | COC(=O)N[C@H](C(=O)N1CCC[C@H]1c1ncc(-c2ccc3cc(-c4ccc(-c5cnc([C@@H]6CCCN6C(=O)[C@H](NC(=O)C6CCCO6)c6ccccc6)[nH]5)cc4)ccc3c2)[nH]1)C(C)C (stereo partly shown) [Example 261] | 0.011 | 1 to 990 | 1 to 999 | 1 to 999 | 1 to 990 | – | –
17 | COC(=O)NC(C(=O)N1CCC[C@H]1c1ncc(-c2ccc(-c3ccc4cc(-c5cnc([C@@H]6CCCN6C(=O)[C@@H](NC(=O)OC)C(C)C)[nH]5)ccc4c3)cc2)[nH]1)c1cnccn1 (stereo partly shown) [Example 230] | 0.012 | 1000 to 4990 | 1000 to 44000 | 1 to 999 | 1000 to 4990 | – | –
18 | COC(=O)N[C@H](C(=O)N1CCC[C@H]1c1ncc(-c2ccc3cc(-c4ccc(-c5cnc([C@@H]6[C@H]7CC[C@H](C7)N6C(=O)[C@H](NC(=O)OC)c6ccccc6)[nH]5)cc4)ccc3c2)[nH]1)C(C)C [Example 48] | – | 1 to 990 | – | – | – | 0.007 | EC50 [1, 12]: 1000 to 44000 pM; EC50 [3, 14]: 1 to 999 pM; EC50 [5, 15]: 1000 to 4990 pM
19 | COC(=O)N[C@H](C(=O)N1CC2(C[C@H]1c1ncc(-c3ccc4cc(-c5ccc(-c6cnc([C@@H]7CCCN7C(=O)[C@H](NC(=O)OC)c7ccccc7)[nH]6)cc5)ccc4c3)[nH]1)OCCO2)C1CCOCC1 [Example 44] | – | 1 to 990 | – | – | – | 0.032 | EC50 [1, 12]: 1 to 999 pM; EC50 [3, 14]: 1 to 999 pM; EC50 [5, 15]: 1000 to 4990 pM
20 | COC(=O)N[C@H](C(=O)N1CCS[C@@H]1c1nc2ccc3cc(-c4ccc(-c5cnc([C@@H]6CCCN6C(=O)[C@@H](NC(=O)OC)C6CCOCC6)[nH]5)cc4)ccc3c2[nH]1)C(C)C [Example 332] | 1.25 | 1 to 990 | – | – | – | – | EC50 ([1]; Hepatitis C virus): 1 to 999 pM; EC50 [3, 7]: 1000 to 44000 pM; EC50 [5, 8]: 1000 to 4990 pM
21 | COC(=O)N[C@H](C(=O)N1CCC[C@H]1c1nc2c([nH]1)-c1ccc(-c3ccc4cc(-c5cnc([C@@H]6CCCN6C(=O)[C@H](NC(=O)CN6CCOCC6)c6ccccc6)[nH]5)ccc4c3)cc1CC2)C(C)C [Example 245] | 0.017 | 1 to 990 | 1 to 999 | 1 to 999 | 1 to 990 | – | –
22 | COC(=O)N[C@H](C(=O)N1CCC[C@H]1c1ncc(-c2ccc3c(c2)COc2c-3ccc3cc(-c4cnc([C@@H]5CCCN5C(=O)[C@@H](NC(=O)OC)[C@@H](C)OC)[nH]4)ccc23)[nH]1)[C@@H](C)OC [Example 17] | – | 1 to 990 | – | – | – | 0.014 | EC50 [1, 16]: 1 to 999 pM; EC50 [3, 17]: 1 to 999 pM; EC50 [5, 18]: > 5000 pM
23 | COC(=O)N[C@H](C(=O)N1CCC[C@H]1c1nc2ccc(-c3ccc4c(c3)C(F)(F)c3cc(-c5c[nH]c([C@@H]6CCCN6C(=O)[C@@H](NC(=O)OC)C6CCOCC6)n5)ccc3-4)cc2[nH]1)C(C)C [Example 219] | 0.008 | 1 to 990 | 1 to 999 | 1 to 999 | 1000 to 4990 | – | –

— patent US10344019B2 (priority 2010, dated 2019)
